{"source": "patent US11596623B2", "about": "“Methods for treating virus infection or proliferation” (HOWARD UNIVERSITY, priority 2018, dated 2023)", "key": {"[1]": {"test_system": "HSV1-Luc (R8411)", "test": "HSV1-Luc bioluminescence luciferase assay in HEp-2 cells", "assay_type": "cell-based, HSV-1", "set-up": "HSV-1 proliferation (luciferase signal): dose or concentration left out as unconfirmed", "experimental": "(A) Hep-2 cells were incubated with the indicated compounds in the presence of HSV1-Luc virus at a concentration of 4×10^6 pfu/ml media. (B) Quantification of the luciferase signal from the samples in panel (A). Signals from three replicates from two separate experiments were combined to generate the average and the standard error bar.\n(§1) To 80-90% confluent HEp-2 cells, HSV-1-Luc (R8411) are added at a concentration of 2×10e^6 pfu/ml along with indicated concentration of inhibitor compounds. After the described incubation period, luciferase activity is evaluated from bioluminescence images acquired by a Perkin Elmer IVIS Spectrum Imaging system immediately after adding luciferase substrate (D-luciferin, Gold Bio Technology) at a concentration of 400 μg/mL in medium. Bioluminescence intensity in different wells is quantified in units of photons per second per centimetre squared per steradian (p/s/cm^2/sr) by drawing a polygonal region of interest over the signals in images using Living Image 3.0 software (Caliper Life Sciences).\nas §1, with “cells, HSV1-Luc” for “cells, HSV-1-Luc”, “(R8411) was” for “(R8411) are”, “activity was” for “activity is”, “wells was” for “wells is”, “per centimeter” for “per centimetre”\nTo visualize the effect of the drugs on the proliferation of HSV-1, a luciferase tagged HSV-1 F strain expressing luciferase (R8411 mutant) under the control of ICP27 promoter was obtained [Horsburgh B C, Hubinette M M, Tufaro F. Genetic manipulation of herpes simplex virus using bacterial artificial chromosomes. Methods Enzymol. 1999; 306:337-52]. […] The same samples after incubation of 48 h were used to assay for HSV-1 ICP0 and RACK1 protein expression (B of FIG. 5). Depletion of RACK1 by the compounds correlated with the depletion of the viral ICP0 protein confirming earlier results shown in B of FIG. 3."}, "[2]": {"test_system": "IRES (β-Globin)", "test": "Dual-luciferase reporter assay, β-Globin control construct", "assay_type": "cell-based", "experimental": "Dual-luciferase reporter constructs were generously provided from (Plank et al., 2013) and (Carvajal et al., 2016). In the plasmid constructs, renilla luciferase (Rluc) translation is cap-dependent, while the firefly luciferase (Flue) translation depends on HIV-1 IRES. The Fluc/Rluc ratio was measured in the presence or the absence of the compounds in HEK293T cells transfected with the dual-luciferase plasmid bearing either Beta-globin, HCV, HIV-1 gag, EMVC or HIV-1 ladder sequences. Cells get transfected with the plasmids using Lipofectamine 3000 Reagent, from Thermo Fisher Scientific. Then treated with RACK1 inhibitors and its analogs (SD-29, and SD-29-14) at different concentrations; 1 μM, 10 μM, and […]. Moreover, the cells were treated with Dimethyl sulfoxide (DMSO) as a vehicle control or left untreated. Luc-Pair™ Duo-Luciferase Assay Kit 2.0 Kit (Genecopoeia) was used to measure the luciferase activity. HEK293T cells were grown to reach no more than 90% confluent at the desired time of lysate preparation.\nFor measuring Fluc/Rluc ratio and bioluminescence, Both Renilla and Firefly substrates were added to the same wells containing respective plasmid constructs. After the described incubation period, luciferase activity was evaluated from bioluminescence images acquired by a Perkin Elmer IVIS Spectrum Imaging system immediately after adding luciferase substrates. The Spectral Un-mixing options integrated in the software was used to un-mix the respective luminescence from Renilla and Firefly. Bioluminescence intensity in each well was quantified in units of photons per second per centimeter squared per steradian (p/s/cm^2/sr) by drawing a polygonal region of interest over the signals in images using Living Image 3.0 software (Caliper Life Sciences).\nDual-luciferase reporter constructs were used to determine if the drugs targeting RACK1 affect IRES-mediated translation. Renilla luciferase (Rluc) translation dependent on cap and the firefly luciferase (Fluc) translation dependent on HIV-1 IRES were utilized. The Fluc/Rluc ratio was measured in the presence or the absence of the compounds in the HEK293T cells transfected with the dual-luciferase plasmid bearing the predicted IRES from HIV-1 driving a firefly luciferase reporter gene and a cap dependent renilla luciferase from the same construct. As a control, HCV IRES is used within the dual luciferase construct (instead of HIV-1) as a positive control as HCV is known to use IRES solely for translating its transcripts, while Beta-globin plasmid was used as a negative control. The dual-luciferase reporters, as used here, are previously reported where HIV-1 IRES were reported (Plank, T. D., J. T. Whitehurst, and J. S. Kieft, Cell type specificity and structural determinants of IRES activity from the 5′ leaders of different HIV-1 transcripts. Nucleic Acids Res, 2013. 41(13): p. 6698-714; Carvajal, F., et al., Structural domains within the HIV-1 mRNA and the ribosomal protein S25 influence cap-independent translation initiation. FEBS J, 2016. 283(13): p. 2508-27.) The cells were transfected with the plasmids using Lipofectamine, then treated with RACK1 inhibitors (SD-29 and SD29-14) at different concentrations (1, 10, and 50 μM). Control cells were treated with DMSO or left untreated. SV40 promoter produces a capped and poly-adenylated dicistronic message. Translation of the upstream cistron (renilla luciferase, RLUC) is cap dependent, whereas translation of the downstream cistron (firefly luciferase, FLUC) occurs cap independently. The dual luciferase constructs are depicted in FIG. 1A. IRES activity is measured by calculating the ratio of FLUC to RLUC light production (RLUs) (Plank et al., 2013)."}, "[3]": {"test_system": "HEp-2 cells", "test": "Trypan blue exclusion cell viability", "assay_type": "cell-based", "settings": "24-hour treatment", "experimental": "In order to assess whether the compounds are producing any toxicity that can led to the cell deaths, we evaluated the cell viability by the trypan blue exclusion method. As long-term inhibition of RACK1 expression has been reported to cell cycle arrest, we limited our experimental treatments to 24 h and evaluated the cell viability of almost full confluent cells after 24 h of compound treatment.\nIn table 2, the viability of cells was measured with Trypan blue exclusion assay in a Cellometer (Nexcelom, Lawrence, Mass.). The percentage survival of the compound treated cells was evaluated along with the DMSO treated cells. The values represent the mean±SE of three separate well based replicates."}}, "note": "Read-outs that look alike come from different tables or passages of the source."}
{"smiles": "Nn1c(S)nnc1-c1cc(Cl)cc(Cl)c1", "note": "[SD29-14]", "values": [{"measurement": "HSV-1 proliferation (luciferase signal)", "setting": "[1]", "value": "significantly inhibited the HSV-1 proliferation"}, {"measurement": "efficacy compared with acyclovir", "setting": "[1]; HSV1-Luc, acyclovir 10 μM", "value": "slightly higher level"}, {"measurement": "HSV-1 proliferation (luciferase signal)", "setting": "[1]; co-treatment of compound and virus, dose series", "value": "strong inhibition of HSV-1 proliferation in a dose dependent manner"}, {"measurement": "concentration from which inhibition of HSV-1 (HSV1-Luc) proliferation starts", "setting": "[1]; in vitro, luciferase signal", "value": 1, "unit": "µM"}, {"measurement": "efficacy relative to SD-29", "setting": "[1]; starting concentration, HSV-1 luciferase signal", "value": 100, "unit": "times"}, {"measurement": "FLUC", "setting": "[2]; 1 μM", "value": "2.21E+04", "unit": "p/s/cm^2/sr"}, {"measurement": "FLUC/RLUC Ratio", "setting": "[2]; 1 μM", "value": "0.067 ± 0.002"}, {"measurement": "FLUC", "setting": "[2]; 10 μM", "value": "2.72E+04", "unit": "p/s/cm^2/sr"}, {"measurement": "FLUC/RLUC Ratio", "setting": "[2]; 10 μM", "value": "0.062 ± 0.003"}, {"measurement": "RLUC", "setting": "[2]; 10 μM", "value": "4.39E+05", "unit": "p/s/cm^2/sr"}, {"measurement": "FLUC", "setting": "[2]; 50 μM", "value": "1.74E+04", "unit": "p/s/cm^2/sr"}, {"measurement": "FLUC/RLUC Ratio", "setting": "[2]; 50 μM", "value": "0.067 ± 0.004"}, {"measurement": "RLUC", "setting": "[2]; 50 μM", "value": "2.62E+05", "unit": "p/s/cm^2/sr"}, {"measurement": "HEp-2 Cell viability, Mean", "setting": "[3]; 10 μM", "value": 97.5, "unit": "%"}, {"measurement": "HEp-2 Cell viability, Mean", "setting": "[3]; 100 μM", "value": 93.7, "unit": "%"}]}
{"smiles": "Nn1c(S)nnc1-c1ccc(F)cc1", "note": "[SD-29]", "values": [{"measurement": "HSV-1 proliferation (luciferase signal)", "setting": "[1]", "value": "much less efficacy"}, {"measurement": "FLUC", "setting": "[2]; 1 μM", "value": "4.02E+04", "unit": "p/s/cm^2/sr"}, {"measurement": "FLUC/RLUC Ratio", "setting": "[2]; 1 μM", "value": "0.068 ± 0.002"}, {"measurement": "RLUC", "setting": "[2]; 1 μM", "value": "5.82E+05", "unit": "p/s/cm^2/sr"}, {"measurement": "FLUC", "setting": "[2]; 10 μM", "value": "3.52E+04", "unit": "p/s/cm^2/sr"}, {"measurement": "FLUC/RLUC Ratio", "setting": "[2]; 10 μM", "value": "0.074 ± 0.006"}, {"measurement": "RLUC", "setting": "[2]; 10 μM", "value": "4.70E+05", "unit": "p/s/cm^2/sr"}, {"measurement": "FLUC", "setting": "[2]; 50 μM", "value": "3.74E+04", "unit": "p/s/cm^2/sr"}, {"measurement": "FLUC/RLUC Ratio", "setting": "[2]; 50 μM", "value": "0.093 ± 0.004"}, {"measurement": "RLUC", "setting": "[2]; 50 μM", "value": "4.01E+05", "unit": "p/s/cm^2/sr"}, {"measurement": "HEp-2 Cell viability, Mean", "setting": "[3]; 10 μM", "value": 94.0, "unit": "%"}, {"measurement": "HEp-2 Cell viability, Mean", "setting": "[3]; 100 μM", "value": 92.7, "unit": "%"}]}
